Assay [1] concerns the target T1, tankyrase 2 (TNKS 2) (Homo sapiens, UniProt Q9H2K2).
T1 construct: 613-1, 116aa; made in house; host or cells: cell-free protein synthesis system
Briefly: Tankyrase inhibitory activity test (ELISA, self-polyADP ribosylation), tankyrase 2. In kind it is biochemical. The following applies: tankyrase 2, ELISA, self-polyADP ribosylation; read-out: TNKS2 inhibitory activity (IC50 class). Here is the method: (§1) (Test Example 1) Tankyrase Inhibitory Activity Test
(§2) For each of the compounds obtained in Examples (the test target compounds), the tankyrase inhibitory activity (an inhibitory activity against tankyrase 1 (TNKS 1) and an inhibitory activity against tankyrase 2 (TNKS 2)) was evaluated by measuring the enzymatic activity of tankyrase 1 and the enzymatic activity of tankyrase 2 by the ELISA technique using self-polyADP ribosylation as an index. First, Flag-tag fusion tankyrase 1 (1,024-1,327aa, SAM+PARP) and tankyrase 2 (613-1, 116aa, ANK5+SAM+PARP) were each synthesized by a cell-free protein synthesis system and diluted with a Tris buffer (50 mM Tris-HCl (pH 8.0), 150 mM NaCl, 10% glycerol). Then, 50 μL of the diluted tankyrase 1 or tankyrase 2 was added to a plate on which the anti-FLAGM 2 monoclonal antibody was immobilized (Anti-FLAG high sensitivity M2 coated plate) (SIGMA Corporation), and was allowed to stand at 4° C. overnight. Thereafter, the plate was washed four times with a PBS buffer containing 0.1% Triton X-100 (PBST buffer).
(§3) Subsequently, the test target compound diluted with an assay buffer (50 mM Tris-HCl (pH 8.0), 4 mM MgCl2, 0.2 mM DTT) (using DMSO as a control) was added to each well of the plate and was allowed to stand at room temperature for 10 minutes. Thereafter, a biotin-labeled NAD solution (225 μM NAD, 25 μM 6-Biotin-17-NAD (Trevigen Inc.)) was added as a donor substrate and mixed with the resultant test target compound, and the reaction was allowed to proceed at 30° C. for 45 minutes. Instead of the biotin-labeled NAD solution, distilled water was added to blank wells. After the reaction, the plate was washed four times with the PBST buffer. Thereafter, HRP (horseradish peroxidase)-labeled streptavidin (Trevigen Inc.) diluted 1,000-fold with the PBS buffer was added to each well, and the reaction was allowed to proceed at room temperature for 20 minutes. After the plate was washed four times with the PBST buffer, a chemiluminescent substrate solution TACS-Sapphire (Trevigen Inc.) was added to each well and the reaction was allowed to proceed at room temperature for 20 minutes. Then, the chemiluminescence intensity was measured using a chemiluminescence measuring apparatus.
(§4) The residual enzyme activity in the presence of the test target compound was determined in accordance with the following formula. Based on the residual enzyme activity at multiple concentrations of the test target compound, an enzyme inhibition activity was calculated as a 50% inhibitory concentration (IC50 value) using data analysis software named Origin (LightStone Corp.).
In general terms: ELISA stands for enzyme-linked immunosorbent assay.

Assay [2] has as its target T2, tankyrase 1 (TNKS 1) (Homo sapiens, UniProt O95271).
T2 construct: 1,024-1,327aa; made in house; host or cells: cell-free protein synthesis system
Put plainly: Tankyrase inhibitory activity test (ELISA, self-polyADP ribosylation), tankyrase 1. The assay is classed as biochemical. The following applies: tankyrase 1, ELISA, self-polyADP ribosylation; read-out: TNKS1 inhibitory activity (IC50 class). Here is the method: as §1, §2, §3, §4

Assay [3] deals with human colorectal cancer cell line, COLO-320DM. Briefly: Cell proliferation inhibitory activity test (Celltiter-Glo Luminescent Cell Viability Assay). As to conditions: COLO-320DM cells, 96 hours, read-out: COLO-320 DM cell proliferation inhibitory activity (GI50 class). The assay is classed as cell-based. Here is the method:
(Test Example 2) Cell Proliferation Inhibitory Activity Test
The cell proliferation inhibitory activity of the compound obtained in each of Examples against human colorectal cancer cell line, COLO-320DM was evaluated by Celltiter-Glo Luminescent Cell Viability Assay (Promega Corporation, G7573). The COLO-320 DM cells were cultured in a RPMI-1640 medium (Wako Pure Chemical Industries, Ltd., 189-02025) containing 10% fetal bovine serum and 2 mM of glutamine. The cultured cells were washed with PBS and then detached with trypsin/EDTA to prepare a cell solution containing 3×10^4 cells/mL.
Next, the cell solution was seeded in a 96 well microplate (Thermo/Nunc, 136101) in an amount of 70 μL/well and was cultured overnight under conditions at 37° C. with 5% CO2. On the next day, 10 μL/well of a solution in which the test target compound (DMSO solution) was diluted with the cell culture medium (a final DMSO concentration of 1%) was added and the reaction was allowed to proceed under conditions at 37° C. with 5% CO2 for 96 hours (a 1% DMSO solution was used as a control). Subsequently, 80 μL/well of Celltiter-Glo Luminescent Cell Viability Assay reagent (Promega Corporation, G7573) was added, followed by agitation for 2 minutes with a shaker under shielding with aluminum foil. Thereafter, the resultant solution was allowed to stand for reaction at room temperature for 10 minutes.
After that, the luminescent signal was measured with a luminometer (Biotech, Synergy). The cell proliferation inhibitory activity was evaluated by obtaining a percentage of a cell proliferation volume of each compound-added group with respect to a cell proliferation volume (100%) of a control group in which no test target component solution was added, and calculating a value of compound concentration (GI50) required to reduce the remaining cell volume to 50% of the remaining cell volume of the control. […] The results are shown in Tables 120 to 123 together with the results of the tankyrase inhibition activity test.
In general terms: ATP-based viability assays read luminescence as a measure of living cells.

Structures are written as SMILES. pIC50: −log10 of the molar value.

T1 sequence (Q9H2K2 613-1166): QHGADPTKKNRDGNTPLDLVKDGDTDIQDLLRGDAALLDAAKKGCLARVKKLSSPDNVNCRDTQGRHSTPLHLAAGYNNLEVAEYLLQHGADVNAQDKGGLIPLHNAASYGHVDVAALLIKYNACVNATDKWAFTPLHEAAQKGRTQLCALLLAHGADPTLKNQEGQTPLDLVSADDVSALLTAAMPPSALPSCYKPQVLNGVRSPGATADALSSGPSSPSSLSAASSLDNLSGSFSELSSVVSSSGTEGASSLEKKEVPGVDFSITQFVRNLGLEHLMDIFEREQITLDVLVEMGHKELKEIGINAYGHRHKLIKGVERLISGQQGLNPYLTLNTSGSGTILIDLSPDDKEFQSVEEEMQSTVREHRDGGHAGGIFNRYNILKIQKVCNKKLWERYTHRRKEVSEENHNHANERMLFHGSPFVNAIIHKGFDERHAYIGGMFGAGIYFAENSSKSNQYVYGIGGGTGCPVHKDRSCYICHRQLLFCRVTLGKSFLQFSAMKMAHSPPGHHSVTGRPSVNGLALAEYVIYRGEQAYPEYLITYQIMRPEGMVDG
T2 sequence (O95271 1024-1327): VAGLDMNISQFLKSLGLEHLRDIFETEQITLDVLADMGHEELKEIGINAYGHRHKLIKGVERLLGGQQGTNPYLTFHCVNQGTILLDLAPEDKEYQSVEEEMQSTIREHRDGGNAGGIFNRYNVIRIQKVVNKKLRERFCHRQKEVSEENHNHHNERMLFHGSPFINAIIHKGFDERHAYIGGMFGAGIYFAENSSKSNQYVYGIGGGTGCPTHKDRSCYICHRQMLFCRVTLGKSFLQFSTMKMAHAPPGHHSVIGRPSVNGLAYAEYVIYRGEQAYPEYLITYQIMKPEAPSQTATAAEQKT

On to `O=c1[nH]c(N2CCC3(CC2)CN(Cc2cncnc2)c2cc(F)cc(F)c23)nc2c1CCCC2` [Example 252, 2-[4,6-difluoro-1-(pyrimidin-5-yl)methyl-spiro [indoline-3,4′-piperidin]-1′-yl]-5,6,7,8-tetrahydro-quinazolin-4(3H)-one], for which the pIC50 in assay [1] and in assay [2] was more than 7.70 in each case. Also, the GI50 in assay [3] is 100 to 600 nM.

In the case of `O=c1[nH]c(N2CCC3(CC2)CN(Cc2ccccn2)c2cc(F)cc(F)c23)nc2c1CCCC2` [Example 253, 2-[4,6-difluoro-1-(pyridin-2-yl)methyl-spiro [indoline-3,4′-piperidin]-1′-yl]-5,6,7,8-tetrahydro-quinazolin-4(3H)-one], the pIC50 in assay [1] and in assay [2] was more than 7.70 in each case. Further, in assay [3], the GI50 lay in the range of 100 to 600 nM.

On to `O=c1[nH]c(N2CCC3(CC2)CN(Cc2ccncc2)c2cc(F)cc(F)c23)nc2c1CCCC2` [Example 254, 2-[4,6-difluoro-1-(pyridin-4-yl)methyl-spiro[indoline-3,4′-piperidin]-1′-yl]-5,6,7,8-tetrahydro-quinazolin-4(3H)-one], for which the pIC50 in assay [1] and in assay [2] was more than 7.70 each time. Also, the GI50 in assay [3] was 100 to 600 nM.

As for `Cc1cccc2c(=O)[nH]c(N3CCC4(CC3)CN(CCO)c3cc(F)cc(F)c34)nc12` [Example 258, 2-[4,6-di-fluoro-1-(2-hydroxy-ethyl)spiro-[indoline-3,4′-piperidin]-1′-yl]-8-methyl-quinazolin-4(3H)-one], the pIC50 in assay [1] and in assay [2] was more than 7.70 in each case. Also, the GI50 in assay [3] was in the range of 600 to 1000 nM.

In the case of `O=c1[nH]c(N2CCC3(CC2)CN(CCO)c2cc(F)cc(F)c23)nc2c(CO)cccc12` [Example 259, 2-[4,6-di-fluoro-1-(2-hydroxy-ethyl)spiro-[indoline-3,4′-piperidin]-1′-yl]-8-(hydroxy-methyl)-quinazolin-4(3H)-one], the pIC50 in assay [1] and in assay [2] was more than 7.70 in each case. In addition, the GI50 in assay [3] was in the range of 600 to 1000 nM.

For `O=C1N(Cc2cccnc2)c2cc(F)cc(F)c2C12CCN(c1nc3c(CO)cccc3c(=O)[nH]1)CC2` [Example 273, 4,6-difluoro-1′-[8-(hydroxymethyl)-4-oxo-3,4-dihydro-quinazolin-2-yl]-1-(pyridin-3-ylmethyl)-spiro[indoline-3,4′-piperidin]-2-one], the pIC50 in assay [1] and in assay [2] was more than 7.70 each time. Moreover, in assay [3], the GI50 lay within 600 to 1000 nM.

On to `CN1CCCc2c1nc(N1CCC3(CC1)C(=O)N(C)c1ccccc13)[nH]c2=O` [Example 292, 1-methyl-1′-(8-methyl-4-oxo-3,4,5,6,7,8-hexa-hydropyrido-[2,3-d]-pyrimidin-2-yl)-spiro[indoline-3,4′-piperidine]-2-one], for which the pIC50 in assay [1] and in assay [2] was more than 7.70 each time. Besides, in assay [3], the GI50 lay in the range of 100 to 600 nM.

Consider `O=c1[nH]c(N2CCC3(CC2)CN(Cc2ncccn2)c2cc(F)cc(F)c23)nc2c1CCCC2` [Example 316, 2-[4,6-difluoro-1-(pyrimidin-2-yl-methyl)spiro-[indoline-3,4′-piperidine]-1′-yl]-5,6,7,8-tetrahydro-quinazoline-4(3H)-one], for which the pIC50 in assay [1] and in assay [2] was more than 7.70 in each case. Besides, the GI50 in assay [3] fell in the range of 100 to 600 nM.

In the case of `CN1C(=O)C2(CCN(c3nc4c(c(=O)[nH]3)CCCC4)CC2)c2c(Cl)cc(-c3nc(C(=O)N4CCOCC4)co3)cc21` [Example 323, 4-chloro-1-methyl-6-[4-(morpholine-4-carbonyl)oxazole-2-yl]-1′-(4-oxo-3,4,5,6,7,8-hexa-hydroquinazoline-2-yl)spiro[indoline-3,4′-piperidin]-2-one], the pIC50 in assay [1] and in assay [2] was more than 7.70 each time. Besides, in assay [3], the GI50 fell in the range of 600 to 1000 nM.

In the case of `CN1CCCc2c1nc(N1CCC3(CC1)C(=O)N(C)c1cc(-c4nc(C(=O)N5CCOCC5)co4)cc(Cl)c13)[nH]c2=O` [Example 326, 4-chloro-6-[4-(morpholine-4-carbonyl)-oxazol-2-yl]-1-methyl-1′-(8-methyl-4-oxo-3,4,5,6,7,8-hexahydro-pyrido[2,3-d]-pyrimidin-2-yl)spino-[indoline-3,4′-piperidin]-2-one], the pIC50 in assay [1] and in assay [2] was 6.70 to 7.70 throughout. Also, the GI50 in assay [3] was 600 to 1000 nM.

On to `CN1CCCc2c1nc(N1CCC3(CC1)C(=O)N(C)c1c(C#N)ccc(Cl)c13)[nH]c2=O` [Example 327, 4-chloro-1-methyl-1′-(8-methyl-4-oxo-3,4,5,6,7,8-hexahydro-pyrido[2,3-d]-pyrimidin-2-yl)-2-oxo-spiro[indoline-3,4′-piperidine]-7-carbonitrile], for which the pIC50 in assay [1] and in assay [2] was more than 7.70 in each case. The GI50 in assay [3] was 100 to 600 nM.

With `CCOC(=O)c1coc(-c2cc(Cl)c3c(c2)N(C)C(=O)C32CCN(c3nc4c(c(=O)[nH]3)CCCN4C)CC2)n1` [Example 328, 4-chloro-6-(4-ethoxy-carbonyl-oxazole-2-yl)-1-methyl-1′-(8-methyl-4-oxo-3,4,5,6,7,8-hexahydro-pyrido[2,3-d]-pyrimidin-2-yl)spiro-[indoline-3,4′-piperidin]-2-one], the pIC50 (commonly the IC50 on a negative log10 scale, so that one unit is a factor of ten) in assay [1] is more than 7.70; in assay [2] it was 6.70 to 7.70. In assay [3], the GI50 is 100 to 600 nM.

As for `CN1CCCc2c1nc(N1CCC3(CC1)C(=O)N(C)c1cc(-c4nc(CN5CCCC5)co4)cc(Cl)c13)[nH]c2=O` [Example 329, 4-chloro-1-methyl-1′-(8-methyl-4-oxo-3,4,5,6,7,8-hexahydro-pyrido[2,3-d]-pyrimidin-2-yl)-6-[4-(pyrroidin-1yl-methyl)oxazol-2-yl]-spiro-[indoline-3,4′-piperidin]-2-one], the pIC50 in assay [1] and in assay [2] was 6.70 to 7.70 each time. Moreover, the GI50 in assay [3] was in the range of 600 to 1000 nM.

`CN1CCCc2c1nc(N1CCC3(CC1)C(=O)N(C)c1c(C(N)=O)ccc(Cl)c13)[nH]c2=O` [Example 330, 4-chloro-1-methyl-1′-(8-methyl-4-oxo-3,4,5,6,7,8-hexahydro-pyrido[2,3-d]-pyrimidin-2-yl)-2-oxospiro-[indoline-3,4′-piperidine]-7-carboxamide]: the pIC50 in assay [1] and in assay [2] was more than 7.70 each time. Moreover, the GI50 in assay [3] was 600 to 1000 nM.

For the compound `CN1CCCc2c1nc(N1CCC3(CC1)C(=O)N(C)c1cc(-c4nc(C(=O)O)co4)cc(Cl)c13)[nH]c2=O` [Example 331, 2-{4-chloro-1-methyl-1′-(8-methyl-4-oxo-3,4,5,6,7,8-hexahydro-pyrido[2,3-d]pyrimidin-2-yl)-2-oxospiro [indoline-3,4′-piperidin]-6-yl]oxazole-4-carboxylic acid], the pIC50 in assay [1] and in assay [2] was more than 7.70 in each case. Also, the GI50 in assay [3] fell in the range of 600 to 1000 nM.

The values above are taken from patent US11414429B2, “Compound or pharmaceutically acceptable salt thereof” (RIKEN, priority 2016, dated 2022).
